Test results: publication PMC11094793, “Discovery of LLC0424 as a Potent and Selective in Vivo NSD2 PROTAC Degrader” (Journal of Medicinal Chemistry, 2024)
Where two headings read alike, the source gives them in different places.

Assays:
H3K36me2 = H3K36me2 level by immunoblotting; type: cell-based, human; settings: 2 μM
Procedure: NSD2 is the primary methyltransferase that transfers dimethyl to H3K36 in ALL with NSD2 gain-of-function mutation. Therefore, the effects of LLC0424 on H3K36me2 was evaluated in SEM and RPMI-8402 cells. […] Meanwhile, LLC0424 treatment also led to downregulation of H3K36Me2 in RPMI-8402 cells within 24 h (Figure 6B). […] We also conducted a colony formation assay to evaluate the effect of LLC0424 on the stem cell-like property of the leukemia cells. […] As LLC0424 leads to strong degradation of both NSD2-L and NSD2-S, the phenotypic changes upon LLC0424 treatment result from complete inactivation of NSD2 activity, including adaptor-like function of NSD2-S and SET-domain dependent enzymatic function of NSD2-L. The specific contributions of NSD2 isoforms warrant future investigation. To characterize the genes affected by LLC0424 treatment, we performed global transcriptome analysis of SEM cells treated by DMSO, LLC0424, or LLC0424N. LLC0424 treatment led to significant changes in the transcriptome of SEM cells with over 326 differentially expressed genes. […]
After treatment, the cultured cells were collected and rinsed with phosphate-buffered saline (PBS) in room temperature. […] After sonication and centrifugation, the total amount of protein in the cell lysates was measured by Pierce Bovine Serum Albumin Standard Pre-Diluted Set (ThermoFisher Scientific). […]

NSD2 = target: T1, NSD2 (Homo sapiens, UniProt O96028); assay: Compound screening: NSD2 degradation by immunoblotting in VCaP cells; settings: VCaP, 24 h
T1 sequence (O96028 1-1365): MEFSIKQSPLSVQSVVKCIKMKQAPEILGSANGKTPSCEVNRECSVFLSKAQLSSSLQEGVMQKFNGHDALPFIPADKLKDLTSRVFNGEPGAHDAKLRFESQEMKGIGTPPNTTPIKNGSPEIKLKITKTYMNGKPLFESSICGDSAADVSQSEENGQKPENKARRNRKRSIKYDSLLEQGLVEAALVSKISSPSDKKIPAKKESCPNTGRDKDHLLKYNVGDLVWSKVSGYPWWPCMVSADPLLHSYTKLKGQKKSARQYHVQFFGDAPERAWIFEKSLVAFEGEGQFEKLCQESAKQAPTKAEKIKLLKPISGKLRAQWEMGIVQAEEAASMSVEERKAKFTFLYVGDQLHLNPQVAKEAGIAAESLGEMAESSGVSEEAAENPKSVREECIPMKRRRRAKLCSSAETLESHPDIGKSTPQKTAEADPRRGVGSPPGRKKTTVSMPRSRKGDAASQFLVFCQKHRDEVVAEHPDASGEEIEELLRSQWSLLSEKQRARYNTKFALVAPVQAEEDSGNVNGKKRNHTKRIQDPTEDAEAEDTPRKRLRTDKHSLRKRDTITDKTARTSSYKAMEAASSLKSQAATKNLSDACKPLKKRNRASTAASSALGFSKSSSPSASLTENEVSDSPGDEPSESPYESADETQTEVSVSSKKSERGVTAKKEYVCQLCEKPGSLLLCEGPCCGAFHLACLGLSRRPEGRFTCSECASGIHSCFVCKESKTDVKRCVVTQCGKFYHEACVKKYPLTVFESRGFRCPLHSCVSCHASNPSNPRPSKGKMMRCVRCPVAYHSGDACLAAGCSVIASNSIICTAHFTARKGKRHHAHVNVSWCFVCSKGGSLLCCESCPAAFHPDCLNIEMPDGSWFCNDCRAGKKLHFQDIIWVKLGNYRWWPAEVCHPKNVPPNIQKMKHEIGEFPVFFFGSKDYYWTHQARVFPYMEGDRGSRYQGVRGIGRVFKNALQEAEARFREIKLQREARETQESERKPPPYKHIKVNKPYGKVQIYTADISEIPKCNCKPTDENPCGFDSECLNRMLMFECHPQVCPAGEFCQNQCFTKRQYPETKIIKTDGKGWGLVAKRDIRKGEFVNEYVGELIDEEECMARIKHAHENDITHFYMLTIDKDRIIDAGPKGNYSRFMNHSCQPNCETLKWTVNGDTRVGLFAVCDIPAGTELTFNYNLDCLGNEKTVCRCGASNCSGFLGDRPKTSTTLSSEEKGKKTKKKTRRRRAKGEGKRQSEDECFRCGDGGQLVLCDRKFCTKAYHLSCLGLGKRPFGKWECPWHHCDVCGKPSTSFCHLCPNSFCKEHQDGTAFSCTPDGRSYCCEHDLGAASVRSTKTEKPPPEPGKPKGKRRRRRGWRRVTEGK

O=C1CCC(N2C(=O)c3ccc(N4CCC(NC(=O)c5ccc(NC(=O)c6ccc(CN(C(=O)c7ccc8c(c7)OCC(=O)N8)C7CC7)cc6)cc5)CC4)cc3C2=O)C(=O)N1 (stereo not shown) [compound 10l, N-Cyclopropyl-N-(4-((4-((1-(2-(2,6-dioxopiperidin-3-yl)-1,3-dioxoisoindolin-5-yl)piperidin-4-yl)carbamoyl)phenyl)carbamoyl)benzyl)-3-oxo-3,4-dihydro-2H-benzo[b][1,4]oxazine-7-carboxamide]
H3K36Me2 level (H3K36me2; RPMI-8402 cells, within 24 h): downregulation
H3K36Me2 level (H3K36me2; SEM cells, as long as 8 days): persistent downregulation
Dmax at 2 µM (NSD2; read-out: 2.0 μM Degradation % (VCaP)): 95%
Dmax at 2 µM (NSD2; read-out: % Degradation): 95%
